Assay results from US11753408B2, “Compounds and method for blocking transmission of malarial parasite” (The United States of America, as represented by the …, priority 2016, dated 2023).

Key:
PAMPA permeability = format: in vitro ADME
Solubility at pH 7.4 = format: physicochemical
[1] = Microsomal stability (rat); format: in vitro ADME; conditions: rat microsomes
[2] = test system: Asexual parasites of P. falciparum strain 3D7; assay: In vitro drug activity on asexual parasites (SYBR Green assay); format: cell-based, Plasmodium falciparum
Summary of the method: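 3D7 parasites at 0.5% parasitemia and 2% hematocrit were exposed to drugs (DMSO ≤0.5%) for 72 h under standard culture conditions, in duplicate. After freeze-thaw lysis, SYBR Green I lysis buffer was added for 30 min at room temperature, and fluorescence was read at 490/520 nm.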

mTOR = mTOR (Homo sapiens, UniProt P42345); assay: mTOR activity (no method described); format: biochemical
[3] = test system: Stage III-V gametocytes (blood stage P. falciparum parasites); assay: In vitro drug activity on gametocytes (AlamarBlue viability assay); format: cell-based, Plasmodium falciparum; conditions: read-out: Gametocyte EC50
Summary of the method: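 P. falciparum 3D7 stage III–V gametocytes (also HB3, Dd2), enriched by 50 mM N-acetylglucosamine and Percoll gradient, seeded at 20,000/well with compound for 72 h at 37° C, 5% CO2. AlamarBlue then added for 24 h; viability read as fluorescence (Ex 525, Em 598 nm).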

PAMPA Permeability (PAMPA permeability) [×10⁻⁶ cm/s] | Sol @ pH 7.4 (Solubility at pH 7.4) [ug/mL] | Microsomal Stability (rat) T1/2 [1] [min] | EC50 [2] [nM] | mTOR (mTOR) [nM] | SMILES | EC50 [3] [nM]
18.4 | 1.4 | >30.0 | 37.9 | 714.1 | Cn1c(=O)n(-c2cccc(C#N)c2)c2c3cc(-c4ccc(N)cc4)ccc3ncc21 [Compound 439] | 844
< 1 | <1.0 | >30.0 | 319 | 516.2 | Cn1c(=O)n(-c2cccc(C#N)c2)c2c3cc(-c4ccc(Cl)c(O)c4)ccc3ncc21 [Compound 441] | 686
645 | 3.3 | >30.0 | 44.5 | 302.4 | CC(O)c1ccc(-c2ccc3ncc4c(c3c2)n(-c2cccc(C#N)c2)c(=O)n4C)cc1 (stereo not drawn) [Compound 443] | 68.3
407 | <1.0 | 12.8 | 106 | 427.8 | Cn1c(=O)n(-c2cccc(C#N)c2)c2c3cc(-c4cccc(O)c4)ccc3ncc21 [Compound 444] | 280
